The values below are quoted from earlier work in patent US12194028B2 (Slayback Pharma LLC, priority 2022, dated 2025).

SMILES strings stand for the structures.

Consider `COc1ccc(-n2nc(C(N)=O)c3c2C(=O)N(c2ccc(N4CCCCC4=O)cc2)CC3)cc1` [apixaban, 1-(4-methoxyphenyl)-7-oxo-6-[4-(2-oxopiperidin-1-yl)phenyl]-4,5-dihydropyrazolo [3,4-c] pyridine-3-carboxamide], for which the aqueous solubility (in water) was 40 to 50 µg/mL. In addition, the solubility result (throughout physiological pH range of 1.0-8.0) was “very low”.

In general, aqueous solubility refers to how much of the substance goes into solution per volume.
